One data set addresses Interleukin-15 (Homo sapiens, UniProt P40933). Nature of the data set: Binding affinity to IL-15 (unknown origin) assessed as dissociation constant by fluorescence polarization assay. (In general: Polarisation of emitted light reports the rotation of a fluorescent probe.)
Data set [1] concerns the target Immunoglobulin heavy constant gamma 4 (Homo sapiens) (UniProt P01861). Nature of the data set: Binding affinity to IgG4 (unknown origin) by fluorescence polarization assay.
The target of data set [2] is T1, N-acetylated-alpha-linked acidic dipeptidase 2 (Homo sapiens, UniProt Q9Y3Q0). Kind of data set: Binding affinity to human recombinant GCPIII assessed as dissociation constant by fluorescence polarization assay.
Target sequence in this assay (Q9Y3Q0 whole entry): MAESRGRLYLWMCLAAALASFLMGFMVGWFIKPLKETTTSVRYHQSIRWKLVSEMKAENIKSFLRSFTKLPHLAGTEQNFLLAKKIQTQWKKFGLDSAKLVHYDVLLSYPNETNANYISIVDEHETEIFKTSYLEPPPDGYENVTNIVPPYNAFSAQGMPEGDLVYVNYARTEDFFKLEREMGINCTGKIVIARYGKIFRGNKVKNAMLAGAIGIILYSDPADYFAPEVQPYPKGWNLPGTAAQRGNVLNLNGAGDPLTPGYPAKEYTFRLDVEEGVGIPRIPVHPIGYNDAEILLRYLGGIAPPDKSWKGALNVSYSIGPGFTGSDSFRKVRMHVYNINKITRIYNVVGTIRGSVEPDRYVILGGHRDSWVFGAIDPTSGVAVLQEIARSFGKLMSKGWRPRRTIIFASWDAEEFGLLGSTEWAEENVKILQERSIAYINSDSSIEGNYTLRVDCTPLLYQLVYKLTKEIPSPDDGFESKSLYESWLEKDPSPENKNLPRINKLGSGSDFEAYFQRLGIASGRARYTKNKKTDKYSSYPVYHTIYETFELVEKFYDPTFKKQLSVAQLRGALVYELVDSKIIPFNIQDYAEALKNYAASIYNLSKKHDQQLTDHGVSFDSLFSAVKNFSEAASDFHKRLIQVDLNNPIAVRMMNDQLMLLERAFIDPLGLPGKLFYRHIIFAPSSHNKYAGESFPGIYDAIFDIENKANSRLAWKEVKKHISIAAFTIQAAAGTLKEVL
Data set [3] is described as follows: Binding affinity to IL-9 receptor (unknown origin) assessed as dissociation constant by fluorescence polarization assay. Further details: species or system Homo sapiens.
Data set [4] deals with Natural cytotoxicity triggering receptor 1 (Homo sapiens, UniProt O76036). Kind of data set: Binding affinity to NKp46 (unknown origin) assessed as dissociation constant by fluorescence polarization assay.
Data set [5] addresses T2, Prolyl endopeptidase FAP (Mus musculus, UniProt P97321).
T2 sequence (P97321 whole entry): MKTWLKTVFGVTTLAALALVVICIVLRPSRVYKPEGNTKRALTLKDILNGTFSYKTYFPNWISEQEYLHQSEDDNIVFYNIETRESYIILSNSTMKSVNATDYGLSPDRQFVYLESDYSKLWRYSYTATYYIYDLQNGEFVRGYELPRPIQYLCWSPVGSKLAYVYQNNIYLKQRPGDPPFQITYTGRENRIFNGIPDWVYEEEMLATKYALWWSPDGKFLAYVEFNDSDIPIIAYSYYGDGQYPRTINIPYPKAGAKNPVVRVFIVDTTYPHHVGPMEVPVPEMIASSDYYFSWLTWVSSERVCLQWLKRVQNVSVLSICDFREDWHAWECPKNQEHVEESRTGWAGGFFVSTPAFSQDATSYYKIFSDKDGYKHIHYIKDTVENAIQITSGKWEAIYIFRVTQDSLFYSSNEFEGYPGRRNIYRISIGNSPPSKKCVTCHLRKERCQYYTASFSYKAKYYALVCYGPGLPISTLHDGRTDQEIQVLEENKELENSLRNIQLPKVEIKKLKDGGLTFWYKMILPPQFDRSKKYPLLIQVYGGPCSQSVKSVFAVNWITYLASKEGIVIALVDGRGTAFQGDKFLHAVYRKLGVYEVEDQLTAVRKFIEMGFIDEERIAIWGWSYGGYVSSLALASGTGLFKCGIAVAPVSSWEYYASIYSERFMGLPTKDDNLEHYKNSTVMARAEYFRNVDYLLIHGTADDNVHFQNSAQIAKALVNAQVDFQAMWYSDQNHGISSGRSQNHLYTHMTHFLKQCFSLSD
Kind of data set: Binding affinity to mouse FAP assessed as dissociation constant by fluorescence polarization assay.

For data set [6], the target named is Albumin (Bos taurus, UniProt P02769). Kind of data set: Binding affinity to bovine serum albumin by fluorescence polarization assay.
Data set [7] concerns the target Carbonic anhydrase 2 (Homo sapiens) (UniProt P00918). Nature of the data set: Binding affinity to Carbonic anhydrase II (unknown origin) by fluorescence polarization assay.
Data set [8] addresses T3, Glutamate carboxypeptidase 2 (Homo sapiens, UniProt Q04609). Kind of data set: Binding affinity to human recombinant PSMA assessed as dissociation constant by fluorescence polarization assay.
Target sequence in this assay (Q04609 whole entry): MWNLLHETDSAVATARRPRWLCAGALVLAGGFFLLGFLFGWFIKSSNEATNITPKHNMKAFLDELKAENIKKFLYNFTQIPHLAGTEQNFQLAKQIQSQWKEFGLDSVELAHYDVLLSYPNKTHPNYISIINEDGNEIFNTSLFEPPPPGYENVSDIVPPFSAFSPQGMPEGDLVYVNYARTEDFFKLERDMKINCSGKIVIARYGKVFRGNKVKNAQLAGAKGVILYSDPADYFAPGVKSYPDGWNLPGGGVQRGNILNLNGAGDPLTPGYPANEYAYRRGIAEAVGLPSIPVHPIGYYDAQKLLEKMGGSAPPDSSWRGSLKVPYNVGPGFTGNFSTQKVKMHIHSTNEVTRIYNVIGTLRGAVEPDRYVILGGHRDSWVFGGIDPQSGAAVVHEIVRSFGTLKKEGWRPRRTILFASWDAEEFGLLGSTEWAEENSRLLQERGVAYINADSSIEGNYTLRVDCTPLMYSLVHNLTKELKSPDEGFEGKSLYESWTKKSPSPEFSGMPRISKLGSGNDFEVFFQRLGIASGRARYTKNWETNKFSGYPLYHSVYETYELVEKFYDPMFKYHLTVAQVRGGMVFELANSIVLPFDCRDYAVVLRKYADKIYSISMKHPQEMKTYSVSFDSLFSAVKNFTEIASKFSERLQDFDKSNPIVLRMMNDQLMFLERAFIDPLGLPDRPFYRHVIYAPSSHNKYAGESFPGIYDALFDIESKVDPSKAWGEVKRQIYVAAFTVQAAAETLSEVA
In data set [9] the target is Stromelysin-1 (Homo sapiens) (UniProt P08254). Nature of the data set: Binding affinity to MMP3 (unknown origin) by fluorescence polarization assay.
For data set [10], the target named is T4, Prolyl endopeptidase FAP (Homo sapiens, UniProt Q12884).
T4 sequence (Q12884 whole entry): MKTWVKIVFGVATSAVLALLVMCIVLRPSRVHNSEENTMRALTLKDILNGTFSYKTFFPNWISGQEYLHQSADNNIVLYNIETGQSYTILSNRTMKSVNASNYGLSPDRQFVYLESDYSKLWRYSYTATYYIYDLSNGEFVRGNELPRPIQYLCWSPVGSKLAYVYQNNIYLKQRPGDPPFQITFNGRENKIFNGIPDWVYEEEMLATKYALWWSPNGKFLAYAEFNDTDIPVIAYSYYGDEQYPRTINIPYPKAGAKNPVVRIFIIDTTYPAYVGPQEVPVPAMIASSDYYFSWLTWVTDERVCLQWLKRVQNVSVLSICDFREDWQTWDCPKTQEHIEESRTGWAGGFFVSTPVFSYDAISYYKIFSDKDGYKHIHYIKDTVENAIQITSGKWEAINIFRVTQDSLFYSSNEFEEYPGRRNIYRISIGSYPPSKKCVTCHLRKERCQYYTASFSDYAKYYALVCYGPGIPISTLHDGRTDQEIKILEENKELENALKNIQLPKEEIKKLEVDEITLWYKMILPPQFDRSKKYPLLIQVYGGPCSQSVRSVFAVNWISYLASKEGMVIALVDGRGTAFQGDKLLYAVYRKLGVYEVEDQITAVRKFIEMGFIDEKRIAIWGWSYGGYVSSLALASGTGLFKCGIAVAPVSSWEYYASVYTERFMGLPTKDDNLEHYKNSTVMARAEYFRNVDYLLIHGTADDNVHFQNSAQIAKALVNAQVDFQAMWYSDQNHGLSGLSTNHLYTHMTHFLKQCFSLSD
Nature of the data set: Binding affinity to human FAP assessed as dissociation constant by fluorescence polarization assay.

The species named for another data set is Homo sapiens. Nature of the data set: Ratio of Kd for binding affinity to human recombinant GCPIII assessed as dissociation constant by fluorescence polarization assay to Kd for binding affinity to human recombinant PSMA assessed as dissociation constant by fluorescence polarization assay.
Data set [11] concerns the target T3, Glutamate carboxypeptidase 2. Kind of data set: Displacement of [177Lu]LU-PSMA-617 from PSMA in human salivary gland assessed as residual activity at 10 uM incubated for 1 hr by autoradiography analysis relative to control. Format: tissue-based.
Target sequence in this assay (Q04609 whole entry, looked up): as the sequence (Q04609 whole entry) above
For data set [12], the target named is Albumin (Macaca fascicularis, UniProt A2V9Z4). Nature of the data set: Binding affinity to cynomolgus serum albumin by fluorescence polarization assay. The conditions noted are these: cynomolgus monkey.
In data set [13] the target is Albumin (Rattus norvegicus, UniProt P02770). Nature of the data set: Binding affinity to rat serum albumin by fluorescence polarization assay.
Data set [14] has as its target Albumin (Oryctolagus cuniculus, UniProt P49065). Kind of data set: Binding affinity to rabbit serum albumin by fluorescence polarization assay.
The target in data set [15] is Urokinase-type plasminogen activator (Homo sapiens, UniProt P00749). Nature of the data set: Binding affinity to Urokinase (unknown origin) assessed as dissociation constant by fluorescence polarization assay.
Data set [16] has as its target Albumin (Homo sapiens, UniProt P02768). Nature of the data set: Binding affinity to human serum albumin by fluorescence polarization assay.
Data set [17] deals with T3, Glutamate carboxypeptidase 2. Nature of the data set: Displacement of [177Lu]LU-PSMA-617 from PSMA in human HT-1080 cells by autoradiography analysis. It counts as cell-based. The conditions noted are these: dose 0.6-50 µM.
Target sequence in this assay (Q04609 whole entry, looked up): as the sequence (Q04609 whole entry) above
Data set [18] addresses T1, N-acetylated-alpha-linked acidic dipeptidase 2. Nature of the data set: Displacement of [177Lu]LU-PSMA-617 from human […] at 10 to 100 uM incubated for 15 mins by manual size-exclusion chromatography analysis. To be noted: dose 10-100 µM. For orientation: Size exclusion chromatography separates by hydrodynamic size, large species first.
Target sequence in this assay (Q9Y3Q0 whole entry, looked up): as the sequence (Q9Y3Q0 whole entry) above

Molecules are shown by their SMILES. Calls of active or inactive are those of the source. No cut-off for these calls is given here.

Sequence of Albumin (Homo sapiens, UniProt P02768) (P02768 whole entry): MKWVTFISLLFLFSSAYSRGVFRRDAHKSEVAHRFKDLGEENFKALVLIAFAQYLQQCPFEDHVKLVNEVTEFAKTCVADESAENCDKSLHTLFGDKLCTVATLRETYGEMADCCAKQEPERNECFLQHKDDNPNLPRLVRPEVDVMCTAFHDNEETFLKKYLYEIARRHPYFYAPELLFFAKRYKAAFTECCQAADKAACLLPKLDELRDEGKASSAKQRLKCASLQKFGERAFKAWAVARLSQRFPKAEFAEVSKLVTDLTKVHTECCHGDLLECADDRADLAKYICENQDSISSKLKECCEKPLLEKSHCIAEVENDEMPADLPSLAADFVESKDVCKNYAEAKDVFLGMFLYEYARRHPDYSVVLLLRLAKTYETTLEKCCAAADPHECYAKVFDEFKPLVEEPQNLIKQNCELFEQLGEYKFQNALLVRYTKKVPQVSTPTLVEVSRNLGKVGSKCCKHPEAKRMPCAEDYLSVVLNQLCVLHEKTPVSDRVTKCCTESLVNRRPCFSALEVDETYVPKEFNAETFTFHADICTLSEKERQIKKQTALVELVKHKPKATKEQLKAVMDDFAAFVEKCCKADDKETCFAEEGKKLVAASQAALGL
Sequence of Immunoglobulin heavy constant gamma 4 (Homo sapiens) (P01861 whole entry): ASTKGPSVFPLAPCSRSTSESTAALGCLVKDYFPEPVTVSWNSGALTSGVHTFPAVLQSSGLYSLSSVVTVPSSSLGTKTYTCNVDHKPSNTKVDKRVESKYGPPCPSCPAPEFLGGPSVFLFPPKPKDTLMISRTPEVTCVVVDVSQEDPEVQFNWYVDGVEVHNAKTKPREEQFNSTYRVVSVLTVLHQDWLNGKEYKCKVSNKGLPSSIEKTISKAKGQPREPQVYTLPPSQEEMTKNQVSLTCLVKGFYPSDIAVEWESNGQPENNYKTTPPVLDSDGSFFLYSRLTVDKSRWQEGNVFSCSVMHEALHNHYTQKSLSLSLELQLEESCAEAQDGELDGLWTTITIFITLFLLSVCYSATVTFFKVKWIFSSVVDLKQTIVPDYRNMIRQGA
Sequence of Stromelysin-1 (Homo sapiens) (P08254 100-477 limits assumed): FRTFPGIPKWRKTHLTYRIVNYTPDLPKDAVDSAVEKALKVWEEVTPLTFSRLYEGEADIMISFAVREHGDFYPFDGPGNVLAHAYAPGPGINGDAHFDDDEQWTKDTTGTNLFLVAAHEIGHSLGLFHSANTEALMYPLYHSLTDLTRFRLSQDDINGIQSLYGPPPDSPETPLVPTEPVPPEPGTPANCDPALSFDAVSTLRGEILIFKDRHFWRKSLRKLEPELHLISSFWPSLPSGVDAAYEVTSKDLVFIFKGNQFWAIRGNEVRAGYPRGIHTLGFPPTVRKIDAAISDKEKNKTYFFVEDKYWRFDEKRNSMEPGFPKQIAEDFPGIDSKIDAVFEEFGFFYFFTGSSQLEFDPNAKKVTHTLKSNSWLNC
Sequence of Albumin (Oryctolagus cuniculus, UniProt P49065) (P49065 whole entry): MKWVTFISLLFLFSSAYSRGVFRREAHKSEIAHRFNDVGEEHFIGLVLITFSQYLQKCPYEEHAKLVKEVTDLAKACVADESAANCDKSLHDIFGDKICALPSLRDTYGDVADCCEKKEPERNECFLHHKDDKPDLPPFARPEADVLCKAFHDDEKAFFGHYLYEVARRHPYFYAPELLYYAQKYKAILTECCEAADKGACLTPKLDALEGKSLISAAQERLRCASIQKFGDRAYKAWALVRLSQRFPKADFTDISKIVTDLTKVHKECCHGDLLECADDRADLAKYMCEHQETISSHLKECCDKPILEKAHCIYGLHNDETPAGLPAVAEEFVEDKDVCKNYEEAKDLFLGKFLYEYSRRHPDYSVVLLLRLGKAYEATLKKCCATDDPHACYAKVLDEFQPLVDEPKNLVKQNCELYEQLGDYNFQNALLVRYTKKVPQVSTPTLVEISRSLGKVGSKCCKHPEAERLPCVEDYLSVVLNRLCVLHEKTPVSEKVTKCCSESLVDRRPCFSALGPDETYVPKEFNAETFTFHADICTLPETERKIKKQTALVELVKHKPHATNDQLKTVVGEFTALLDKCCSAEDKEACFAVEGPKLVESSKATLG
Sequence of Interleukin-15 (P40933 whole entry): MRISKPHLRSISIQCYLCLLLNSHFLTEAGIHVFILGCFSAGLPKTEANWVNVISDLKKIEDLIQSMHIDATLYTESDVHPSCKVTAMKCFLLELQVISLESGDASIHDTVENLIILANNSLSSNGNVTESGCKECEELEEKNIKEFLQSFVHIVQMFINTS
Sequence of Albumin (Bos taurus, UniProt P02769) (P02769 whole entry): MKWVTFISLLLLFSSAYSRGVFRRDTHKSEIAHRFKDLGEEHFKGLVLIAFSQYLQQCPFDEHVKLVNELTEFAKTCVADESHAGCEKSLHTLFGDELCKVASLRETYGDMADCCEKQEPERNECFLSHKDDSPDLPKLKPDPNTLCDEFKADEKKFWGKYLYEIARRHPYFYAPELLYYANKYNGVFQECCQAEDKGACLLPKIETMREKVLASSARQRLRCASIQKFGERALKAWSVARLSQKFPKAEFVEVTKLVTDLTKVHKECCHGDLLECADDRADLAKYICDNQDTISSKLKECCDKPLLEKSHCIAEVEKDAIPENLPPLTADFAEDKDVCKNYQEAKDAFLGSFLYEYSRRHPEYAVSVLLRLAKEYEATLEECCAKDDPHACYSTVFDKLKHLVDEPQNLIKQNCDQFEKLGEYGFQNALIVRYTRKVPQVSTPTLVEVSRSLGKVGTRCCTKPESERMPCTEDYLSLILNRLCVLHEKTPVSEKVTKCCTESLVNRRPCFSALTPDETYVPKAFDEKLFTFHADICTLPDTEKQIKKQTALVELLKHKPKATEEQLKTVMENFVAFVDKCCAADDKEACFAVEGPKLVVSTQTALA
Sequence of Natural cytotoxicity triggering receptor 1 (O76036 whole entry): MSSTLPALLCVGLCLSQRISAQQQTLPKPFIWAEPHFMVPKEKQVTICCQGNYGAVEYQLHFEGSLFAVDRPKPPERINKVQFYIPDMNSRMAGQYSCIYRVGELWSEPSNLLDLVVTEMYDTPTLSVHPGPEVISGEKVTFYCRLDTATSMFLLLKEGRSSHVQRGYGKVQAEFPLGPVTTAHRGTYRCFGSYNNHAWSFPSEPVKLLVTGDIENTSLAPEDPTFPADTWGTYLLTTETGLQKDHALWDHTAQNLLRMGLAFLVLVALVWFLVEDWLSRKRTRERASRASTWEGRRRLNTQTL

As usually defined, the Kd is a measure of binding affinity in units of concentration. With `O=C(N[C@@H]1C[C@@H](C(=O)N[C@@H](CCCCNC(=S)Nc2ccc3c(c2)C(=O)OC32c3ccc(O)cc3Oc3cc(O)ccc32)C(=O)O)N(C(=O)c2cnoc2C2CC2)C1)c1c[nH]nn1`, the Kd at Interleukin-15 is over 5 µM; in data set [2] it was 0.014 µM; in [3], over 7.5 µM; in data set [4] it was over 3.3 µM; on Prolyl endopeptidase FAP [5] it was over 0.7 µM; at Albumin [6], 4.5 µM. For the same compound, the Kd in [8] is over 0.002 µM; at Prolyl endopeptidase FAP [10], over 1.5 µM; in data set [15], over 9.5 µM. The outcome in [1], in data set [7] and in [9] was inactive. The Ratio in the data set filed under Homo sapiens is 100. Besides, the Activity is 39% in [11]; “Not Active” at Albumin [12]; “Not Active” at Albumin [13]; “Not Active” at Albumin [14]; “Not Active” on Albumin [16].
As for `O=C(N[C@@H]1C[C@@H](C(=O)N[C@@H](CNC(=S)Nc2ccc3c(c2)C(=O)OC32c3ccc(O)cc3Oc3cc(O)ccc32)C(=O)O)N(C(=O)c2c[nH]nn2)C1)c1c[nH]nn1`, the Kd was 0.0017 µM in [2] and over 1 µM in [8]. The figures for the Activity entry in data set [17] and in data set [11] were “Dose-Dependent Effect” and 14%, respectively. Also, in [18], the result was Active.

The values above are taken from ChEMBL document CHEMBL5506035, “Discovery of Glutamate Carboxypeptidase III Ligands to Compete the Uptake of [177Lu]Lu-PSMA-617 in Healthy Organs” (J Med Chem, 2024).
